Assay results published in patent US20220009915A1, “CHEMICAL PROBES AND METHODS OF USE THEREOF” (City University of Hong Kong, priority 2020, published 2022).

Columns and labels:
Type in all cases: biochemical
Sirt5 = molecular target: T1, Sirt5 (Homo sapiens, UniProt Q9NXA8); test: Fluorimeter delipoylation assay of probe KTlip with Sirt5; details: KTlip incubated with Sirt5 at 37° C. in HEPES buffer (pH 8.0)
T1 construct: made in house
T1 sequence (Q9NXA8 37-310): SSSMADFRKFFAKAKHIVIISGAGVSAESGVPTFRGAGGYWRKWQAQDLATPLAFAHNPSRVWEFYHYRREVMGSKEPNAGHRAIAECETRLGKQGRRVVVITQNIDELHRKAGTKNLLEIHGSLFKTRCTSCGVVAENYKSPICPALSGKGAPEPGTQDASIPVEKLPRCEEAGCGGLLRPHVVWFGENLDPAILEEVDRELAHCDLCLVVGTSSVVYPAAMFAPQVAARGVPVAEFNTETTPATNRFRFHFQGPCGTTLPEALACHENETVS
Protocol: (§1) The probe KTlip following was first synthesized. The capacity of HDACs to recognize and remove the lipoyl group of KTlip was then examined by a fluorimeter assay. Briefly, KTlip was incubated with various HDACs at 37° C. in HEPES buffer (pH 8.0). The fluorescence of the enzymatic reactions was then measured accordingly. […] Further HPLC and MS analysis confirmed that the molecular weight of the newly generated peak corresponded to the expected tandem delipoylated/exchanged product (FIG. 4A,B). […] After enzymatic reaction with Sirt2, a shift of peak absorption from 380 nm to 480 nm was clearly observed. (FIG. 4C). Through detailed kinetic study, the first-order rate constant of the reaction was determined to be 0.013 min−1. […]
(§2) The probe KTlip was incubated with sirtuin and NAD+ at 37° C. in 20 mM HEPES buffer (pH 8.0) containing 150 mM NaCl, 1 mM MgCl2, and 2.7 mM KCl. […] When the enzymatic reaction was complete, the reaction was applied for absorption and fluorescence measurement. The parameter set for absorbance measurement was as follows: UV-visible light, collection region: 300-550 nm. The parameter set for fluorescence measurements was as follows: λex=480 nm, slit width: 5 nm, collection region: 510-600 nm.

Sirt3 = molecular target: T2, Sirt3 (Homo sapiens, UniProt Q9NTG7); test: Fluorimeter delipoylation assay of probe KTlip with Sirt3; details: KTlip incubated with Sirt3 at 37° C. in HEPES buffer (pH 8.0)
T2 construct: made in house
T2 sequence (Q9NTG7 1-399): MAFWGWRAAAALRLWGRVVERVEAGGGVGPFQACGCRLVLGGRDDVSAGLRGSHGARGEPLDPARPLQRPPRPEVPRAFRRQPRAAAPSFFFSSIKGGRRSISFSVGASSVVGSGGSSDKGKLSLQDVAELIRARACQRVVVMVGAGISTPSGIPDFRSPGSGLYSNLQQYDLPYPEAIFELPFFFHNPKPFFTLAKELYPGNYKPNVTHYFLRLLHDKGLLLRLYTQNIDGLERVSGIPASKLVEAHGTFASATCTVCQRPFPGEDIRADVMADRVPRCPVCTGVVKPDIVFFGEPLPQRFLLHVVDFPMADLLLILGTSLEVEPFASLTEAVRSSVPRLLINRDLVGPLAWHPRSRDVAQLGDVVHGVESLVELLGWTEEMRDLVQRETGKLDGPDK
Protocol: as §1, §2

Sirt2 = molecular target: T3, Sirt2 (Homo sapiens, UniProt Q8IXJ6); test: Fluorimeter delipoylation assay of probe KTlip with Sirt2
T3 construct: made in house
T3 sequence (Q8IXJ6 1-389): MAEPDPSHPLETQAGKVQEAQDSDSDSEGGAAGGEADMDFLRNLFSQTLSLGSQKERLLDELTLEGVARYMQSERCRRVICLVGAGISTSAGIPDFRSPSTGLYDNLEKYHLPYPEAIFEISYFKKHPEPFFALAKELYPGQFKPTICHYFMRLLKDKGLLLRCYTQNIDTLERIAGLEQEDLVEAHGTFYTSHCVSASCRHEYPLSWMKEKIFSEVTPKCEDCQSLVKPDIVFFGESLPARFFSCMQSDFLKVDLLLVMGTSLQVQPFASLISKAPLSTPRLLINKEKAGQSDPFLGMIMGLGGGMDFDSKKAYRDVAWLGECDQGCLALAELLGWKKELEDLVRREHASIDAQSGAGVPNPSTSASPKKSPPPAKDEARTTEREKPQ
Protocol: as §1, §2

HDAC8 [1] = molecular target: T4, HDAC8 (Homo sapiens, UniProt Q9BY41); test: HPLC analysis of the enzymatic reaction of KTlip with HDAC8; details: KTlip 40 μM, HDAC8 80 ng/μl, 20 mM HEPES pH 8.0, 2 hours reaction
T4 sequence (Q9BY41 1-377): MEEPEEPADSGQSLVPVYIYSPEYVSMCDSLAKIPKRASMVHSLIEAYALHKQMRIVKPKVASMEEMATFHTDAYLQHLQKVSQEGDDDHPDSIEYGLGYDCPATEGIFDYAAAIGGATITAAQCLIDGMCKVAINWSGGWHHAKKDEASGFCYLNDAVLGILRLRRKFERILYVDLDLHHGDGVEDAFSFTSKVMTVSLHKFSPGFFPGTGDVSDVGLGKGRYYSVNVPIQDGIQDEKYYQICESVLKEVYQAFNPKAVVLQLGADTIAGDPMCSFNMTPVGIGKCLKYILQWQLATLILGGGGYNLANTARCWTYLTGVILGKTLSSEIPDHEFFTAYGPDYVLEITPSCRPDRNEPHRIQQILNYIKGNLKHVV
Protocol: FIG. 6 depicts HPLC analysis of the enzymatic reaction of KTlip (40 μM) with HDAC8 (80 ng/μl) in the reaction buffer (20 mM HEPES buffer at pH 8.0, 150 mM NaCl, 1 mM MgCl2 and 2.7 mM KCl).
The probe KTlip following was first synthesized. The capacity of HDACs to recognize and remove the lipoyl group of KTlip was then examined by a fluorimeter assay. Briefly, KTlip was incubated with various HDACs at 37° C. in HEPES buffer (pH 8.0). The fluorescence of the enzymatic reactions was then measured accordingly. […] Further HPLC and MS analysis confirmed that the molecular weight of the newly generated peak corresponded to the expected tandem delipoylated/exchanged product (FIG. 4A,B). […] After enzymatic reaction with Sirt2, a shift of peak absorption from 380 nm to 480 nm was clearly observed. (FIG. 4C). Through detailed kinetic study, the first-order rate constant of the reaction was determined to be 0.013 min−1. The Km value of KTlip obtained from the fluorescent method matched well with that from the traditional HPLC method (FIG. 5), underscoring that probe KTlip can serve as a useful tool for detecting enzymatic delipoylation activity.

HDAC8 [2] = molecular target: T4, HDAC8; test: Fluorimeter delipoylation assay of probe KTlip with HDAC8; details: KTlip incubated with HDAC8 at 37° C. in HEPES buffer (pH 8.0)
Protocol: as §1, §2

Sirt1 = molecular target: T5, Sirt1 (Homo sapiens, UniProt Q96EB6); test: Fluorimeter delipoylation assay of probe KTlip with Sirt1; details: KTlip incubated with Sirt1 at 37° C. in HEPES buffer (pH 8.0); compared with Sirt2
T5 construct: made in house
T5 sequence (Q96EB6 1-747): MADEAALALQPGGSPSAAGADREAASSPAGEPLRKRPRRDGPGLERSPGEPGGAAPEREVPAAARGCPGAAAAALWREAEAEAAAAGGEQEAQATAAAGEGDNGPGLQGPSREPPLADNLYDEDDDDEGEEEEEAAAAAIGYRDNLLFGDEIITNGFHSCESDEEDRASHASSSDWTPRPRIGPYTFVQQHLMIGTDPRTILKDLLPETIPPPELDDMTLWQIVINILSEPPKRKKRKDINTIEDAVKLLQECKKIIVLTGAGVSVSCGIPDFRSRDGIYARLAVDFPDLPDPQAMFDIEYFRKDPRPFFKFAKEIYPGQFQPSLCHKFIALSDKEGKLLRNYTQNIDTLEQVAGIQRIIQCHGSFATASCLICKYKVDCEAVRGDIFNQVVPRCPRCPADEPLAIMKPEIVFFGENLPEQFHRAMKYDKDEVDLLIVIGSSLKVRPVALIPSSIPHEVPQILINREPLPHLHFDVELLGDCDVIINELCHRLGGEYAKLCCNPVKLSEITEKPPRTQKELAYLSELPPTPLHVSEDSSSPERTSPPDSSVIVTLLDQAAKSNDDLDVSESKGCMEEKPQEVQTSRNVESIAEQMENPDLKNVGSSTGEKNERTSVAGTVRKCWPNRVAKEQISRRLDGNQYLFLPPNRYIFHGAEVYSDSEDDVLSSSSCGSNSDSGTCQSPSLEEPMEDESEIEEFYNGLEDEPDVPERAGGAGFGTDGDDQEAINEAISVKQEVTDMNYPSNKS
Protocol: as §1, §2

Sirt6 = molecular target: T6, Sirt6 (Homo sapiens, UniProt Q8N6T7); test: Fluorimeter delipoylation assay of probe KTlip with Sirt6; details: KTlip incubated with Sirt6 at 37° C. in HEPES buffer (pH 8.0)
T6 construct: made in house
T6 sequence (Q8N6T7 whole entry, species assumed): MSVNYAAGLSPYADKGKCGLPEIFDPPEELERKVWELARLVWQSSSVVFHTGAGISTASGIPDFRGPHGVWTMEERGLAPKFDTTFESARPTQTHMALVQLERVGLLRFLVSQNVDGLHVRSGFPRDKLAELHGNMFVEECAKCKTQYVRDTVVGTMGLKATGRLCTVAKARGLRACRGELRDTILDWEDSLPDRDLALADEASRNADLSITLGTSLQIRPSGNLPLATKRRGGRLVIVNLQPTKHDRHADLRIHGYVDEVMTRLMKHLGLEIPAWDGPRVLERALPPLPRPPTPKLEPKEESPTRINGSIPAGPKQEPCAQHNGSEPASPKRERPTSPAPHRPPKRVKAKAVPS
Protocol: as §1, §2

fluorescence increase (Sirt2; KTlip incubated with Sirt2 at 37° C. in HEPES buffer (pH 8.0), NAD+, λex 480 nm): 60 fold
first-order rate constant of the reaction (Sirt2; delipoylation of KTlip by Sirt2, fit of fluorescence data to 1−exp(−kt)): 0.013 min⁻¹
delipoylated product (HPLC) (HDAC8 [1]): no delipoylated product observed
fluorescence signal (Sirt1): much lower fluorescence signal
SMILES: CC(C)(C)OC(=O)N[C@@H](CCCCNC(=O)CCCCC1CCSS1)C(=O)NCCOCCOc1ccc([N+](=O)[O-])c2nonc12 (some centres unmarked) [KTlip]
fluorescence increase (Sirt5): did not show a noticeable fluorescence increase
fluorescence increase (Sirt3): did not show a noticeable fluorescence increase
fluorescence increase (HDAC8 [2]): did not show a noticeable fluorescence increase
fluorescence increase (Sirt6): did not show a noticeable fluorescence increase
